Measurements: ChEMBL document CHEMBL1201862, “PubChem BioAssay data set” (2004)
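Growth conditions: 96-well plates. Treatment: test compound, 48 hours, 5 concentrations. Analysis: linear interpolation between bracketing concentrations; unreached endpoints set to highest concentration. Abbreviation: GI50, concentration required for 50% inhibition of growth.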 The source made the active and inactive calls. Cut-off read from the data, not from the text of the source: active = GI50 up to about 1.1 µM and inactive = higher.

Key:
Assay in all cases: DTP human tumour cell line panel, 48 h
[1] = test system: SF-295
[2] = test system: RPMI-8226
[3] = test system: 786-0
[4] = test system: MDA-MB-435
[5] = test system: HL-60
[6] = test system: NCI-H23
[7] = test system: PC-3
[8] = test system: HCC 2998
[9] = test system: OVCAR-3
[10] = test system: HCT-15
[11] = test system: TK-10
[12] = test system: UACC-257
[13] = test system: SW-620
[14] = test system: IGROV-1
[15] = test system: OVCAR-4
[16] = test system: A498
[17] = test system: KM12
[18] = test system: LOX IMVI
[19] = test system: COLO 205
[20] = test system: CAKI-1
[21] = test system: SN12C
[22] = test system: HCT-116
[23] = test system: SK-MEL-5
[24] = test system: OVCAR-5
[25] = test system: Malme-3M
[26] = test system: NCI-H460
[27] = test system: NCI-H522
[28] = test system: MOLT-4
[29] = test system: NCI-H226
[30] = test system: SNB-75
[31] = test system: UO-31
[32] = test system: MDA-N
[33] = test system: MCF7
[34] = test system: CCRF-CEM
[35] = test system: OVCAR-8
[36] = test system: NCI/ADR-RES
[37] = test system: SK-MEL-2
[38] = test system: A549
[39] = test system: SK-OV-3
[40] = test system: UACC-62
[41] = test system: K562
[42] = test system: RXF 393
[43] = test system: ACHN
[44] = test system: SR
[45] = test system: SF-539
[46] = test system: M14
[47] = test system: HOP-92
[48] = test system: EKVX
[49] = test system: DU-145
[50] = test system: MDA-MB-231
[51] = test system: U-251
[52] = test system: SNB-19
[53] = test system: T47D
[54] = test system: SF-268
[55] = test system: Hs-578T
[56] = test system: HT-29
[57] = test system: SK-MEL-28
[58] = test system: HOP-62

`O=CC1=C(C(=O)OC(c2ccccc2)c2ccccc2)N2C(=O)[C@@H](NC(=O)Cc3cccs3)[C@H]2SC1` was tested, and the GI50 [1] was > 100 µM (inactive), the GI50 [2] was 79.4 µM (inactive) and the GI50 [3] was > 100 µM (inactive). For the same compound, the GI50 [4] was 85.5 µM (inactive), the GI50 [5] was 23.3 µM (inactive) and the GI50 [6] was 73.6 µM (inactive). The GI50 [7] was > 100 µM (inactive), the GI50 [8] was > 100 µM (inactive) and the GI50 [9] was > 100 µM (inactive). The GI50 [10] was over 100 µM, the GI50 [11] was > 100 µM (inactive) and the GI50 [12] was > 100 µM (inactive). The GI50 [13] was > 100 µM (inactive), the GI50 [14] was > 100 µM (inactive) and the GI50 [15] was > 100 µM (inactive). For the same compound, the GI50 [16] was > 100 µM (inactive), the GI50 [17] was 91.2 µM (inactive) and the GI50 [18] was > 100 µM (inactive). The GI50 [19] was > 100 µM (inactive), the GI50 [20] was > 100 µM (inactive) and the GI50 [21] was > 100 µM (inactive). For the same compound, the GI50 [22] was 83 µM (inactive), the GI50 [23] was > 100 µM (inactive) and the GI50 [24] was > 100 µM (inactive). The GI50 [25] was > 100 µM (inactive), the GI50 [26] was > 100 µM (inactive) and the GI50 [27] was 64.3 µM (inactive). The GI50 [28] was 53.6 µM (inactive), the GI50 [29] was > 100 µM (inactive) and the GI50 [30] was > 100 µM (inactive). For the same compound, the GI50 [31] was 40 µM (inactive), the GI50 [32] was > 100 µM (inactive) and the GI50 [33] was > 100 µM (inactive). For the same compound, the GI50 [34] was 57.3 µM (inactive), the GI50 [35] was > 100 µM (inactive) and the GI50 [36] was > 100 µM (inactive). The GI50 [37] was > 100 µM (inactive), the GI50 [38] was > 100 µM (inactive) and the GI50 [39] was > 100 µM (inactive). The GI50 [40] was > 100 µM (inactive), the GI50 [41] was > 100 µM (inactive) and the GI50 [42] was > 100 µM (inactive). The GI50 [43] was > 100 µM (inactive), the GI50 [44] was 13.2 µM (inactive) and the GI50 [45] was > 100 µM (inactive). For the same compound, the GI50 [46] was > 100 µM (inactive), the GI50 [47] was > 100 µM (inactive) and the GI50 [48] was > 100 µM (inactive). For the same compound, the GI50 [49] was > 100 µM (inactive), the GI50 [50] was > 100 µM (inactive) and the GI50 [51] was > 100 µM (inactive).

In the case of `O=C1c2cscc2C(=O)c2c(OCc3ccccc3)ccc(OCc3ccccc3)c21`, the GI50 [1] is reported as > 100 µM (inactive), the GI50 [2] is reported as > 100 µM (inactive) and the GI50 [3] is reported as 58.2 µM (inactive). For the same compound, the GI50 [4] was > 100 µM (inactive), the GI50 [52] was > 100 µM (inactive) and the GI50 [5] was 96.4 µM (inactive). The GI50 [6] was > 100 µM (inactive), the GI50 [7] was 78.5 µM (inactive) and the GI50 [8] was 53.1 µM (inactive). For the same compound, the GI50 [9] was > 100 µM (inactive), the GI50 [11] was > 100 µM (inactive) and the GI50 [53] was > 100 µM (inactive). The GI50 [12] was > 100 µM (inactive), the GI50 [13] was > 100 µM (inactive) and the GI50 [14] was 83.2 µM (inactive). The GI50 [15] was > 100 µM (inactive), the GI50 [17] was > 100 µM (inactive) and the GI50 [18] was 97.9 µM (inactive). The GI50 [19] was > 100 µM (inactive), the GI50 [20] was > 100 µM (inactive) and the GI50 [21] was > 100 µM (inactive). The GI50 [22] was 91.6 µM (inactive), the GI50 [54] was > 100 µM (inactive) and the GI50 [23] was > 100 µM (inactive). The GI50 [24] was > 100 µM (inactive), the GI50 [25] was > 100 µM (inactive) and the GI50 [26] was > 100 µM (inactive). For the same compound, the GI50 [27] was > 100 µM (inactive), the GI50 [28] was > 100 µM (inactive) and the GI50 [29] was > 100 µM (inactive). For the same compound, the GI50 [30] was 56 µM (inactive), the GI50 [31] was 62.5 µM (inactive) and the GI50 [55] was > 100 µM (inactive). The GI50 [32] was > 100 µM (inactive), the GI50 [33] was > 100 µM (inactive) and the GI50 [34] was 53.8 µM (inactive). For the same compound, the GI50 [35] was > 100 µM (inactive), the GI50 [36] was > 100 µM (inactive) and the GI50 [38] was > 100 µM (inactive). The GI50 [39] was > 100 µM (inactive), the GI50 [40] was > 100 µM (inactive) and the GI50 [41] was 61.1 µM (inactive). The GI50 [42] was 75.7 µM (inactive), the GI50 [43] was > 100 µM (inactive) and the GI50 [44] was 54 µM (inactive). The GI50 [45] was > 100 µM (inactive), the GI50 [46] was > 100 µM (inactive) and the GI50 [47] was > 100 µM (inactive). The GI50 [48] was > 100 µM (inactive), the GI50 [49] was > 100 µM (inactive) and the GI50 [56] was 58.1 µM (inactive). The GI50 [57] was > 100 µM (inactive), the GI50 [50] was > 100 µM (inactive) and the GI50 [58] was > 100 µM (inactive).

In the case of `COc1cc(/C=C2\CCC(C)C3=C2NC(=S)NC3c2cc(OC)c(OC)c(OC)c2)cc(OC)c1OC` (centres undefined), the GI50 [2] is reported as 18.5 µM (inactive), the GI50 [3] is reported as 83.9 µM (inactive) and the GI50 [4] is reported as 38.2 µM (inactive). For the same compound, the GI50 [52] was 51.8 µM (inactive), the GI50 [5] was 12.5 µM (inactive) and the GI50 [7] was 37.7 µM (inactive). For the same compound, the GI50 [10] was 47.4 µM, the GI50 [11] was 70.6 µM (inactive) and the GI50 [12] was 53.8 µM (inactive). For the same compound, the GI50 [13] was 96.2 µM (inactive), the GI50 [14] was 40.3 µM (inactive) and the GI50 [15] was 69 µM (inactive). For the same compound, the GI50 [16] was 53 µM (inactive), the GI50 [17] was 32.3 µM (inactive) and the GI50 [18] was 53.2 µM (inactive). The GI50 [20] was 81.5 µM (inactive), the GI50 [21] was 68.4 µM (inactive) and the GI50 [22] was 49 µM (inactive). For the same compound, the GI50 [54] was 73.6 µM (inactive), the GI50 [23] was 23.2 µM (inactive) and the GI50 [24] was > 100 µM (inactive). The GI50 [28] was 24 µM (inactive), the GI50 [30] was 25.6 µM (inactive) and the GI50 [31] was 15.8 µM (inactive). For the same compound, the GI50 [55] was 37 µM (inactive), the GI50 [32] was 43.1 µM (inactive) and the GI50 [33] was 35.7 µM (inactive). For the same compound, the GI50 [34] was 25.2 µM (inactive), the GI50 [35] was 54 µM (inactive) and the GI50 [37] was > 100 µM (inactive). For the same compound, the GI50 [38] was 36.4 µM (inactive), the GI50 [39] was > 100 µM (inactive) and the GI50 [40] was 40 µM (inactive). For the same compound, the GI50 [41] was 26.1 µM (inactive), the GI50 [42] was 34.1 µM (inactive) and the GI50 [43] was 92.7 µM (inactive). For the same compound, the GI50 [44] was 25.2 µM (inactive), the GI50 [46] was 60.3 µM (inactive) and the GI50 [47] was > 100 µM (inactive). For the same compound, the GI50 [48] was 58.1 µM (inactive), the GI50 [49] was 56.8 µM (inactive) and the GI50 [56] was 60.1 µM (inactive). For the same compound, the GI50 [57] was 30.4 µM (inactive), the GI50 [50] was 34.5 µM (inactive) and the GI50 [58] was 70.6 µM (inactive). The GI50 [51] was 46.8 µM (inactive).

For `COc1cc(OC)c(CSCC(NC(=O)OCC2c3ccccc3-c3ccccc32)C(=O)O)c(OC)c1` (centres undefined), the GI50 [1] was > 10 µM (inactive), the GI50 [4] was > 10 µM (inactive) and the GI50 [52] was > 10 µM (inactive). For the same compound, the GI50 [6] was > 10 µM (inactive), the GI50 [7] was > 10 µM (inactive) and the GI50 [9] was > 10 µM (inactive). For the same compound, the GI50 [10] was over 10 µM, the GI50 [11] was > 10 µM (inactive) and the GI50 [13] was > 10 µM (inactive). The GI50 [14] was > 10 µM (inactive), the GI50 [15] was > 10 µM (inactive) and the GI50 [16] was > 10 µM (inactive). For the same compound, the GI50 [17] was > 10 µM (inactive), the GI50 [19] was > 10 µM (inactive) and the GI50 [20] was > 10 µM (inactive). The GI50 [21] was > 10 µM (inactive), the GI50 [22] was > 10 µM (inactive) and the GI50 [54] was > 10 µM (inactive). The GI50 [23] was > 10 µM (inactive), the GI50 [24] was > 10 µM (inactive) and the GI50 [29] was 5.22 µM (inactive). For the same compound, the GI50 [30] was 6.95 µM (inactive), the GI50 [31] was 5.68 µM (inactive) and the GI50 [32] was > 10 µM (inactive). The GI50 [35] was > 10 µM (inactive), the GI50 [36] was > 10 µM (inactive) and the GI50 [38] was > 10 µM (inactive). For the same compound, the GI50 [42] was > 10 µM (inactive), the GI50 [43] was > 10 µM (inactive) and the GI50 [45] was > 10 µM (inactive). The GI50 [46] was > 10 µM (inactive), the GI50 [47] was > 10 µM (inactive) and the GI50 [48] was > 10 µM (inactive). For the same compound, the GI50 [49] was > 10 µM (inactive), the GI50 [56] was > 10 µM (inactive) and the GI50 [57] was > 10 µM (inactive). For the same compound, the GI50 [50] was > 10 µM (inactive) and the GI50 [51] was > 10 µM (inactive).
